According to US8207176B2 (Glaxo Group Limited, priority 2005, dated 2012):
Structures can show the parent of a compound that is named as a salt.

These compounds were tested on influx of neutrophils to the lung in LPS-challenged rats (assay: Rat LPS neutrophilia model). Conditions: intratracheal, LPS aerosol 100 ug/ml 15 min, lavage 4 hours later, in at least one of the range of conditions tested, significant p<0.05, nonsignificant p>0.05.
Format: in vivo
Method: The effect of compounds on the influx of neutrophils to the lung in LPS-challenged rats is evaluated as follows. The test compound is suspended in one of the following solutions: 0.5% tween 80/PBS, 0.5% tween 80/saline, 10% EtOH/saline (with pH adjusted to 2.0, or 8.0 with HCl, or unadjusted), Saline @ pH 2.0, 6.5 or 8.0, 0.5% Tragacanth, 1% DMSO/20% Encapsin/Saline, or acidified 5% Tragacanth. The suspension process may be aided by the use of a glass homogenizer. For intratracheal administration, the animals are anesthetized with inhaled isoflurane and placed in a supine position, the trachea is intubated with a steel gavage needle (1.5 inch, 22 gauge, small ball) or a Penn-Century Microsprayer Aerosolizer (model IA-IB) and 200 ul of dosing solution is delivered. The animals are visually monitored during the recovery process, which typically occurs within two minutes. It is noted that the test compounds may be alternatively administered via the microsprayer in a dry powder blend with a suitable excipient, such as lactose.
Rats treated with compound or vehicle (15 min-24 hours pretreatment) are exposed to an LPS aerosol (100 ug/ml) for 15 min. Four hours later the rats are euthanized with pentobarbital (100 mg/kg, i.p.) and the airways are lavaged with 5 washes of 5 ml of phosphate buffered saline. The harvested cells are stained (Diffquick) and counted to determine total and differential cell data. […] Inhibition of neutrophil levels relative to no compound controls is calculated based on the differential counts.
The data is obtained as % inhibition using a particular concentration and pretreat time.

Row | Structure (SMILES) | inhibition of neutrophilia (neutrophil levels in lung lavage relative to no compound controls)
1 | CCN(CC)CCCNc1nc(-c2cc(C(=O)NCCF)ccc2C)c2ccc(=O)n(-c3c(F)cccc3F)c2n1 [Example 133, 3-[2-{[3-(diethylamino)propyl]amino}-8-(2,6-difluorophenyl)-7-oxo-7,8-dihydropyrido[2,3-d]pyrimidin-4-yl]-N-(2-fluoroethyl)-4-methylbenzamidetrifluoroacetate] | statistically significant inhibition
2 | CCN(CC)CCCNc1nc(-c2cc(C(=O)NCCOC)ccc2C)c2ccc(=O)n(-c3c(F)cccc3F)c2n1 [Example 134, 3-[2-{[3-(diethylamino)propyl]amino-}8(2,6-difluorophenyl)-7-oxo-7,8-dihydropyrido[2,3-d]pyrimidin-4-yl]-4-methyl-N-[2-(methyloxy)ethyl]benzamidetrifluoroacetate] | statistically nonsignificant inhibition
3 | CCN(CC)CCCNc1nc(-c2cc(C(=O)NCC3CCCCC3)ccc2C)c2ccc(=O)n(-c3c(F)cccc3F)c2n1 [Example 135, N-(cyclohexylmethyl)-3-[2-{[3-(diethylamino)propyl]amino}-8-(2,6-difluorophenyl)-7-oxo-7,8-dihydropyrido[2,3-d]pyrimidin-4-yl]-4-methylbenzamidetrifluoroacetate] | inactive
4 | CCN(CC)CCCNc1nc(-c2cc(C(=O)NC3CCC3)ccc2C)c2ccc(=O)n(-c3c(F)cccc3F)c2n1 [Example 137, N-cyclobutyl-3-[2-{[3-(diethylamino)propyl]amino}-8-(2,6-difluorophenyl)-7-oxo-7,8-dihydropyrido[2,3-d]pyrimidin-4-yl]-4-methylbenzamide trifluoroacetate] | statistically significant inhibition
5 | CCN(CC)CCCNc1nc(-c2cc(C(=O)NCC3CC3)ccc2C)c2ccc(=O)n(-c3c(F)cccc3F)c2n1 [Example 138, N-(cyclopropylmethyl)-3-[2-{[3-(diethylamino)propyl]amino}-8-(2,6-difluorophenyl)-7-oxo-7,8-dihydropyrido[2,3-d]pyridin-4-yl]-4-methylbenzamide trifluoroacetate] | statistically nonsignificant inhibition
6 | CCN(CC)CCCNc1nc(-c2cc(C(=O)Nc3ccccc3)ccc2C)c2ccc(=O)n(-c3c(F)cccc3F)c2n1 [Example 147, 3-[2-{[3-(diethylamino)propyl]amino}-8-(2,6-difluorophenyl)-7-oxo-7,8-dihydropyrido[2,3-d]pyrimidin-4-yl]-4-methyl-N-phenylbenzamide] | statistically nonsignificant inhibition
7 | CCN(CC)CCCNc1nc(-c2cc(C(=O)N[C@@H](C)c3ccccc3)ccc2C)c2ccc(=O)n(-c3c(F)cccc3F)c2n1 [Example 149, 3-[2-{[3-(diethylamino)propyl]amino}-8-(2,6-difluorophenyl)-7-oxo-7,8-dihydropyrido[2,3-d]pyrimidin-4-yl]-4-methyl-N-[(1S)-1-phenylethyl]benzamide] | inactive
8 | CCN(CC)CCCNc1nc(-c2cc(C(=O)Nc3ccc(F)cc3)ccc2C)c2ccc(=O)n(-c3c(F)cccc3F)c2n1 [Example 160, 3-[2-{[3-(diethylamino)propyl]amino}-8-(2,6-difluorophenyl)-7-oxo-7,8-dihydropyrido[2,3-d]pyrimidin-4-yl]-N-(4-fluorophenyl)-4-methylbenzamide] | statistically significant inhibition
9 | CCCNC(=O)c1ccc(C)c(-c2nc(N3CCC(N4CCC(C)CC4)CC3)nc3c2ccc(=O)n3-c2c(F)cccc2F)c1 [Example 166, 3-[8-(2,6-difluorophenyl)-2-(4-methyl-1,4′-bipiperidin-1′-yl)-7-oxo-7,8-dihydropyrido[2,3-d]pyrimidin-4-yl]-4-methyl-N-propylbenzamide] | statistically significant inhibition
10 | CCCCNC(=O)c1ccc(C)c(-c2nc(N3CCC(N4CCC(C)CC4)CC3)nc3c2ccc(=O)n3-c2c(F)cccc2F)c1 [Example 167, N-butyl-3-[8-(2,6-difluorophenyl)-2-(4-methyl-1,4′-bipiperidin-1′-yl)-7-oxo-7,8-dihydropyrido[2,3-d]pyrimidin-4-yl]-4-methylbenzamide] | statistically significant inhibition
11 | Cc1ccc(C(=O)NCC(C)C)cc1-c1nc(N2CCC(N3CCC(C)CC3)CC2)nc2c1ccc(=O)n2-c1c(F)cccc1F [Example 168, 3-[8-(2,6-difluorophenyl)-2-(4-methyl-1,4′-bipiperidin-1′-yl)-7-oxo-7,8-dihydropyrido[2,3-d]pyrimidin-4-yl]-4-methyl-N-(2-methylpropyl)benzamide] | inactive
12 | Cc1ccc(C(=O)NC2CCCC2)cc1-c1nc(N2CCC(N3CCC(C)CC3)CC2)nc2c1ccc(=O)n2-c1c(F)cccc1F [Example 169, N-cyclopentyl-3-[8-(2,6-difluorophenyl)-2-(4-methyl-1,4′-bipiperidin-1′-yl)-7-oxo-7,8-dihydropyrido[2,3-d]pyrimidin-4-yl]-4-methylbenzamide] | statistically nonsignificant inhibition
13 | Cc1ccc(C(=O)NCC(F)(F)F)cc1-c1nc(N2CCC(N3CCC(C)CC3)CC2)nc2c1ccc(=O)n2-c1c(F)cccc1F [Example 172, 3-[8-(2,6-difluorophenyl)-2-(4-methyl-1,4′-bipiperidin-1′-yl)-7-oxo-7,8-dihydropyrido[2,3-d]pyrimidin-4-yl]-4-methyl-N-(2,2,2-trifluoroethyl)benzamide] | inactive
14 | CCNC(=O)c1ccc(C)c(-c2nc(N3CCC(N4CCC(C)CC4)CC3)nc3c2ccc(=O)n3-c2c(F)cccc2F)c1 [Example 173, 3-[8-(2,6-difluorophenyl)-2-(4-methyl-1,4′-bipiperidin-1′-yl)-7-oxo-7,8-dihydropyrido[2,3-d]pyrimidin-4-yl]-N-ethyl-4-methylbenzamide] | statistically significant inhibition
15 | Cc1ccc(C(=O)Nc2ccc(F)cc2)cc1-c1nc(N2CCC(N3CCC(C)CC3)CC2)nc2c1ccc(=O)n2-c1c(F)cccc1F [Example 174, 3-[8-(2,6-difluorophenyl)-2-(4-methyl-1,4′-bipiperidin-1′-yl)-7-oxo-7,8-dihydropyrido[2,3-d]pyrimidin-4-yl]N-(4-fluorophenyl)-4-methylbenzamide] | inactive
16 | Cc1ccc(C(=O)NC2CCC2)cc1-c1nc(N2CCC(N3CCC(C)CC3)CC2)nc2c1ccc(=O)n2-c1c(F)cccc1F [Example 175, N-cyclobutyl-3-[8-(2,6-difluorophenyl)-2-(4-methyl-1,4′-bipiperidin-1′-yl)-7-oxo-7,8-dihydropyrido[2,3-d]pyrimidin-4-yl]-4-methylbenzamide] | inactive
17 | Cc1ccc(C(=O)NC2CC2)cc1-c1nc(N2CCC(N3CCC(C)CC3)CC2)nc2c1ccc(=O)n2-c1c(F)cccc1F [Example 178, N-cyclopropyl-3-[8-(2,6-difluorophenyl)-2-(4-methyl-1,4′-bipiperidin-1′-yl)-7-oxo-7,8-dihydropyrido[2,3-d]pyrimidin-4-yl]-4-methylbenzamide] | statistically nonsignificant inhibition
18 | CCCNC(=O)c1cc(F)c(C)c(-c2nc(NCCCN(CC)CC)nc3c2ccc(=O)n3-c2c(F)cccc2F)c1 [Example 181, 3-[2-{[3-(diethylamino)propyl]amino}-8-(2,6-difluorophenyl)-7-oxo-7,8-dihydropyrido[2,3-d]-pyrimidin-4-yl]-5-fluoro-4-methyl-N-propylbenzamide] | statistically nonsignificant inhibition
19 | CCN(CC)CCCNc1nc(-c2cc(C(=O)NC3CC3)cc(F)c2C)c2ccc(=O)n(-c3c(F)cccc3F)c2n1 [Example 185, N-cyclopropyl-3-[2-{[3-(diethylamino)propyl]amino}-8-(2,6-difluorophenyl)-7-oxo-7,8-dihydropyrido[2,3-d]-pyrimidin-4-yl]-5-fluoro-4-methylbenzamide] | statistically nonsignificant inhibition
